Experimental data from US20250051526A1, “POLYMERS COMPRISING GLYCOLIPIDS AND METHODS FOR PRODUCING AND USING THE SAME” (priority 2021, published 2025).

Assay: binding preference from monorhamnolipid-metal conditional stability constants for 26 metals
Details: metals of environmental concern (e.g., Cd, Pd, Hg) versus common soil and water cations
Excerpt: They are considered “green” molecules due to their natural products from bacteria (e.g., Pseudomonas aeruginosa), biodegradability, and low toxicity. The present inventors have experimentally determined the monorhamnolipid-metal conditional stability constants ([…]) for 26 metals of interest.

monorhamnolipid
binding preference for metals of environmental concern over common soil and water cations: 6-8 orders of magnitude
